Source: patent US8389739B1, “Modulators of retinoid-related orphan receptor gamma” (Orphagen Pharmaceuticals, priority 2006, dated 2013)
Read-outs that look alike come from different tables or passages of the source. One block for each compound: values may come before it.

Key:
[1] = biological target: T1, mLXRα (Liver X receptor alpha) (Mus musculus, UniProt Q9Z0Y9); assay: Transcriptional assay of LXRα (Gal4-LXRα hybrid); format: cell-based
T1 construct: 172-455; expressed in transfected cells; host or cells: CHO cells, transient transfection
T1 sequence (Q9Z0Y9 172-445 limits assumed): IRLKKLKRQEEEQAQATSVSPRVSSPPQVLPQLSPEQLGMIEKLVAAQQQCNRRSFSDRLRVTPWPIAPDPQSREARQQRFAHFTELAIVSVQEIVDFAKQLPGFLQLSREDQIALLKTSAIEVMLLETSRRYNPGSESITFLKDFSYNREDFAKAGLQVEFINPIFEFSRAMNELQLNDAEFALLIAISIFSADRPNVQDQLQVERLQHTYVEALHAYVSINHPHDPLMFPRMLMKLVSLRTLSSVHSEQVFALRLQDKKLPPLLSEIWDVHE
Experimental: (§1) A firefly luciferase reporter gene for Gal4 DBD hybrid receptors, such as Gal4-RORγ, contains five copies of the Gal4 17-mer response element in its promoter and the coding sequence for firefly luciferase (pG5-luc, Promega). CHO (Chinese Hamster Ovary) cells were cultured in Ham's F12 medium supplemented with 10% fetal calf serum (Gemini Biologicals), 10 μg/ml penicillin and streptomycin, and were maintained in a humidified 37° C. incubator (Thermo Electron, Steri-Cycle) with 5% CO2. 24 hours before transfection, cells were plated in T175 flasks (5×10^6 cells/flask) or T75 flasks (1.7×10^6 cells/flask). Transient transfection of CHO cells was performed using TransIT-CHO reagents (Minis, Madison, Wis.) with a mixing ratio of 2:6:1 between plasmid DNA (in μg), TransIT-CHO (in μl) and CHO-mojo (in μl).
(§2) Plates are maintained at 37° C. in a humidified atmosphere with 7% CO2 overnight. Four (4) hours after cell seeding, compounds dissolved in DMSO at 10 mM were added to cells at final concentrations of 20 micromolar (μM) to 20 nanomolar (nM) in 0.2% DMSO in triplicate plates. Approximately 40 hours later, cytotoxicity in the assay well was characterized by addition of the dye resazurin (O'Brien, Wilson et al. 2000) to a final concentration of 3 μM. […] Percent viability was determined as 2 hour fluorescence, minus background at t=0 hours, normalized to DMSO controls. For detection of luciferase activity, media was removed from plates after the measurement of resazurin conversion, and SteadyLite luciferase reagent (Perkin-Elmer) was added (30 μl/well). Luminescence is detected with a Victor 2-V plate reader (Perkin-Elmer) and normalized to luciferase activity of DMSO control wells alone.
A transcriptional assay for LXRα, using a Gal4-LXRα hybrid, was implemented in order to compare RORγ ligand potencies. In addition to LXRα, transcriptional assays for a number of other major nuclear receptors were developed.

mRORγ = biological target: T2, mRORγ (Mus musculus, UniProt P51450); assay: Transcriptional assay, Gal4-mRORγ with luciferase reporter in CHO cells; format: cell-based
T2 construct: expressed in transfected cells; host or cells: CHO cells, transient transfection
T2 sequence (P51450 with tags, fused parts or gaps): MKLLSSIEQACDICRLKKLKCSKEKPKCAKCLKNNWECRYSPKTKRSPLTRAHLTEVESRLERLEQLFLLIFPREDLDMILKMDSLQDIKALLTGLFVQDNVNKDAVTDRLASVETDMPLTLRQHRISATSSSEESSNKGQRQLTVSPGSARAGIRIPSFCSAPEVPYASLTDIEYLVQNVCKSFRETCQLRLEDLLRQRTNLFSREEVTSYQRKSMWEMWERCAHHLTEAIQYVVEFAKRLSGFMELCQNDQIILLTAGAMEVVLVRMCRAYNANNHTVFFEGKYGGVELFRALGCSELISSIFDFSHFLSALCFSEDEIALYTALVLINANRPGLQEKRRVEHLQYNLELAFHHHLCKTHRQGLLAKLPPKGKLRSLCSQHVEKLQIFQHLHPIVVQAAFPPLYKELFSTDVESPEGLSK
Experimental: The complete Gal4-mRORγ nucleotide sequence is shown below:
as §1, §2

mRORγ LBD = biological target: T3, mRORγ LBD (Mus musculus, UniProt P51450); assay: Biochemical assay, coregulatory peptide recruitment to GST-RORγ LBD (FRET)
T3 construct: made in house; host or cells: Sf9 insect cells, baculovirus; cleared lysate used directly
T3 sequence (P51450 251-516): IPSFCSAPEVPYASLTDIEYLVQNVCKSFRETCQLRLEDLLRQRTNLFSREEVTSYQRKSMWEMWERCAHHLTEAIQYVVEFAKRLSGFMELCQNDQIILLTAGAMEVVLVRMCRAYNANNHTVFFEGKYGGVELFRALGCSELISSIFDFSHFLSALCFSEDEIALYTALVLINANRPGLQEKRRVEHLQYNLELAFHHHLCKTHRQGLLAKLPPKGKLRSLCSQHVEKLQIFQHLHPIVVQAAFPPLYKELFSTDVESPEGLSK
From the text: GST-RORγ was generated by subcloning the RORγ-LBD into pET-41a, a vector which expresses GST fusion proteins in bacteria.
The cloning steps for GST-RORγ were as follows. The mRORγ LBD was excised from Gal4-mRORγ (see above for cloning steps) at BamHI and HindIII sites of Sequence 1 and cloned into the corresponding sites of pET-41a(+) (EMD Biosciences, San Diego, Calif.). A GST-mRORγ fragment was then excised from pET-41a(+) at XbaI and XhoI sites and cloned into a pcDNA3.1vector (Invitrogen, Carlsbad, Calif.) restricted at NheI and XhoI sites. Plasmid GST-mRORγ-pcDNA3.1 was used as a PCR template to generate a GST-mRORγ fragment that was later cloned into pENTR/D-TOPO vector (Invitrogen, Carlsbad, Calif.) by standard cloning techniques recommended by the manufacturer of the vector. The nucleotide sequence of GST-mRORγ is shown below:
For baculoviral expression of RORγ, the cDNA fragment of GST-RORγ— LBD, was subcloned from pET-41a into the pENTR/D-TOPO vector using a commercially-available kit (BaculoDirect, Invitrogen). Briefly, GST-RORγ carried by pENTR/D-TOPO was transfected into mono-layer Sf9 cells (8×10^5/well in 6-well plates) by Cellfectin (Invitrogen). Sf9 cells were incubated at 27° C. in a non-humidified incubator for 72 hours. Cell media was collected as P1 viral stock and used to further infect Sf9 cells to generate P2 and P3 virus. […] A plaque assay was performed to determine the titer of P3 virus and to isolate single plaques. P4 virus was generated from a single plaque and propagated on a larger scale.
Adherent SF9 cells were infected with baculovirus carrying GST-RORγ and were cultured for 72 hours. Sf9 cell were then subject to a brief sonication in a lysis buffer (20 mM phosphate, pH 6.8, 50 mM KCl, 50 mM NaCl, 0.5 mM EDTA, 50% glycerol, 0.001% NP-40 and 1 mM DTT) and centrifuged at 3000 rpm for 15 minutes. […] Cleared cell lysate was stored at −70° C. and is directly utilized in the coregulatory peptide recruitment assay.
The labeled probes anti-GST-APC and SA-RPE were purchased from Prozyme (San Leandro, Calif.). Compounds were added directly from a DMSO solution to a final concentration of 1-2% DMSO. Fluorescence was measured on a Wallac Victor 2 V plate reader equipped with a 670/40 nm filter (Omega Optical, Brattleboro, Vt.) for APC emission (Channel A) and a 600/25 bandpass filter for monitoring the RPE emission (Channel B).

[2] = Table 7, no unit printed for this column (b114 gives 1.5 μM for OR-1050), read-out: Transcriptional Assay of LXRα EC50
[3] = Table 1, antagonists, inhibition of basal Gal4-mRORγ transcription in CHO cells, read-out: Assay EC50 in micromolar at mRORγ Transcriptional
[4] = Table 7, taken from Table 1, read-out: Assay EC50 in micromolar at mRORγ Transcriptional
[5] = Table 1, mRORγ and peptide K1, read-out: Assay EC50 in micromolar at mRORγ Biochemical
[6] = Table 7, taken from Table 1 (peptide K1), read-out: Assay EC50 in micromolar at mRORγ Biochemical
[7] = Table 2, agonists, antagonist OR-376 (1.5 μM) added to reduce basal transcriptional activity, read-out: EC50 in micromolar at mRORγ Transcriptional
[8] = Table 2, agonists, biotinylated peptide K, 50% of estimated maximum FRET signal, read-out: EC50 in micromolar at mRORγ Biochemical

Emax [1]: < 5% | EC50 [1, 2]: > 100 µM | EC50 (mRORγ; [3]): > 20 µM | EC50 (mRORγ; [4]): > 20 µM | EC50 (mRORγ LBD; [5]): > 100 µM | EC50 (mRORγ LBD; [6]): > 100 µM
Structure (SMILES): O=C(O)CN(c1ccc(C(O)(C(F)(F)F)C(F)(F)F)cc1)S(=O)(=O)c1ccccc1 [OR-1046, {Benzenesulfonyl-[4-(2,2,2-trifluoro-1-hydroxy-1-trifluoromethyl-ethyl)-phenyl]-amino}-acetic acid]

EC50 (mRORγ; [7]): 6 µM | EC50 (mRORγ LBD; [8]): 0.23 µM
Structure (SMILES): COCCCC(C)C1CCC2C3CC(O)C4CC(O)CCC4(C)C3CCC12C (centres unmarked) [OR-12864, 17-(4-Methoxy-1-methyl-butyl)-10,13-dimethyl-hexadecahydro-cyclopenta[a]phenanthrene-3,6-diol]

EC50 (mRORγ; [7]): 4.1 µM
Structure (SMILES): CC(=O)CCC(C)C1CCC2C3CC(O)C4CC(O)CCC4(C)C3CCC12C (centres unmarked) [OR-12870, 5-(3,6-Dihydroxy-10,13-dimethyl-hexadecahydro-cyclopenta[a]phenanthren-17-yl)-hexan-2-one]

EC50 (mRORγ; [7]): 4.1 µM | EC50 (mRORγ LBD; [8]): 0.67 µM
Structure (SMILES): CC(CCCO)C1CCC2C3CC(O)C4CC(O)CCC4(C)C3CCC12C (centres unmarked) [OR-12863, 17-(4-Hydroxy-1-methyl-butyl)-10,13-dimethyl-hexadecahydro-cyclopenta[a]phenanthrene-3,6-diol]

Structure (SMILES): CCN(c1ccc(C(O)(C(F)(F)F)C(F)(F)F)cc1)S(=O)(=O)c1ccccc1 [OR-1031, N-Ethyl-N-[4-(2,2,2-trifluoro-1-hydroxy-1-trifluoromethyl-ethyl)-phenyl]-benzenesulfonamide]
EC50 [1]: 1.4 µM | Emax [1]: > 80% | EC50 (mRORγ; Assay EC50 in micromolar at mRORγ Transcriptional, Table 1, antagonists, inhibition of basal Gal4-mRORγ transcription in CHO cells): 1.4 µM | EC50 (mRORγ; Assay EC50 in micromolar at mRORγ Transcriptional, Table 7, taken from Table 1): 1.4 µM | EC50 (mRORγ LBD): 3.5 µM

Structure (SMILES): COC(=O)CCC(C)C1CCC2C3CC(O)C4CC(O)CCC4(C)C3CCC12C (centres unmarked) [OR-942, 4-(3,6-Dihydroxy-10,13-dimethyl-hexadecahydro-cyclopenta[a]phenanthren-17-yl)-pentanoic acid methyl ester]
EC50 (mRORγ; [7]): 1.5 µM | activation of RORγ transcriptional activity (mRORγ; in the presence of one micromolar antagonist T0901317, CHO cells (FIG. 4A)): approximately 8 fold | EC50 (mRORγ LBD; GST-RORγ and peptide K, in the presence of antagonist T0901317 (FIG. 5), read-out: estimated EC50 in biochemical assay, shifted by antagonist): 4 µM | EC50 (mRORγ LBD; GST-RORγ and peptide K, without T0901317 (FIG. 5), read-out: estimated EC50 in biochemical assay): 0.4 µM | EC50 (mRORγ LBD; [8]): 0.12 µM

EC50 (mRORγ; [7]): > 20 µM
Structure (SMILES): CC(CCC(=O)N1CCCCC1)C1CCC2C1CCC1C3CCC(O)CC3C(O)CC21 (centres unmarked) [OR-12869, 4-(3,6-Dihydroxy-hexadecahydro-cyclopenta[a]phenanthren-17-yl)-1-piperidin-1-yl-pentan-1-one]

EC50 (mRORγ; [7]): 5.2 µM | EC50 (mRORγ LBD; [8]): 0.56 µM
Structure (SMILES): CC(CCC(=O)N(C)C)C1CCC2C3CC(O)C4CC(O)CCC4(C)C3CCC12C (centres unmarked) [OR-12868, 4-(3,6-Dihydroxy-10,13-dimethyl-hexadecahydro-cyclopenta[a]phenanthren-17-yl)-pentanoic acid dimethylamide]

Emax [1]: < 5% | EC50 [1, 2]: > 100 µM | EC50 (mRORγ; [3]): > 20 µM | EC50 (mRORγ; [4]): > 20 µM | EC50 (mRORγ LBD; [5]): > 100 µM | EC50 (mRORγ LBD; [6]): > 100 µM
Structure (SMILES): CCN(c1ccc(C(OC)(C(F)(F)F)C(F)(F)F)cc1)S(=O)(=O)c1ccccc1 [OR-1030, N-Ethyl-N-[4-(2,2,2-trifluoro-1-methoxy-1-trifluoromethyl-ethyl)-phenyl]-benzenesulfonamide]

EC50 (mRORγ; [7]): 8.3 µM | EC50 (mRORγ LBD; [8]): 0.21 µM
Structure (SMILES): CC(CCC(C)(C)O)C1CCC2C3CC(O)C4CC(O)CCC4(C)C3CCC12C (centres unmarked) [OR-12865, 17-(4-Hydroxy-1,4-dimethyl-pentyl)-10,13-dimethyl-hexadecahydro-cyclopenta[a]phenanthrene-3,6-diol]

EC50 (mRORγ; [7]): 0.56 µM | EC50 (mRORγ LBD; [8]): 0.14 µM
Structure (SMILES): COC(C)(C)CCC(C)C1CCC2C3CC(O)C4CC(O)CCC4(C)C3CCC12C (centres unmarked) [OR-12866, 17-(4-Methoxy-1,4-dimethyl-pentyl)-10,13-dimethyl-hexadecahydro-cyclopenta[a]phenanthrene-3,6-diol]

EC50 (mRORγ; [7]): > 20 µM | EC50 (mRORγ LBD; [8]): > 100 µM
Structure (SMILES): CC(CCC(=O)O)C1CCC2C1CCC1C3CCC(O)CC3C(O)CC21 (centres unmarked) [OR-412, 4-(3,6-Dihydroxy-hexadecahydro-cyclopenta[a]phenanthren-17-yl)-pentanoic acid]

EC50 (mRORγ; [7]): > 20 µM
Structure (SMILES): CNC(=O)CCC(C)C1CCC2C1CCC1C3CCC(O)CC3C(O)CC21 (centres unmarked) [OR-12867, 4-(3,6-Dihydroxy-hexadecahydro-cyclopenta[a]phenanthren-17-yl)-pentanoic acid methylamide]

EC50 (mRORγ; Table 3, steroidal antagonists, read-out: Assay EC50 in micromolar transcriptional): 5 µM | EC50 (mRORγ LBD; Table 3, peptide K and 1 μM OR-942, inhibition of the OR-942 baseline by 50%, read-out: Assay EC50 in micromolar biochemical): 12.7 µM
Structure (SMILES): C[C@@H]1CC[C@@]2(OC1)O[C@H]1C[C@H]3[C@@H]4CC[C@H]5C[C@@H](O)CC[C@]5(C)[C@H]4C(=O)[C@@H](O)[C@]3(C)[C@H]1[C@@H]2C [OR-345, 5α, 20α, 22α, 25D-SPIROSTAN-3β, 12β-DIOL-11-ONE]

EC50 (mRORγ; [7]): 8.3 µM | EC50 (mRORγ LBD; [8]): 0.25 µM
Structure (SMILES): CC(O)CCC(C)C1CCC2C3CC(O)C4CC(O)CCC4(C)C3CCC12C (centres unmarked) [OR-12871, 17-(4-Hydroxy-1-methyl-pentyl)-10,13-dimethyl-hexadecahydro-cyclopenta[a]phenanthrene-3,6-diol]
